# Measurements from patent publication US12227512B2, “Benzimidazoles and methods of using same” (priority 2019, dated 2025).
# Like-named read-outs stand apart in the source and are kept apart here.
# Assays:
# [1] = tested on: Zika virus, Dengue, Yellow Fever Virus, West Nile Virus; test: organism not typed; assay type: cell-based; details: read-out: EC50, viral replication
# [2] = tested on: Puerto Rica strain of infectious Zika virus; test: microbe, parasite or virus in culture; assay type: cell-based; details: Vero
# [3] = tested on: Rift Valley Fever Virus (RVFV); test: microbe, parasite or virus in culture; assay type: cell-based
# [4] = Maximum tolerated dose (MTD) in mice; assay type: in vivo; details: AG129 mice; for Alive/total / MDD ± SD (average day of death) / Mean wt. change (g) ± SD: q 3 d × 3; for Alive/total / MDD ± SD (average day of death): 14 days; for Mean wt. change (g) ± SD: weight on 0 and 2 days post-initial treatment
# Method: Without wishing to be bound by theory, the purpose of this study is to further identify the MTD and dosing frequency that can be used for Isis-11 (E2) in future antiviral efficacy studies.
# Animals: 21 AG129 mice produced by an in-house colony were used. Groups of animals were assigned by weight to experimental groups and individually marked with ear tags.
# Test agent: Isis-11 (E2) was provided by University of Utah for testing in the mouse model.
# […] Additional treatments were administered at various time points. Mice were monitored for mortality until 14 days post-initial treatment (dpi). Individual weights were measured daily 0-10 dpi and on 14 dpi.
# Statistical analysis: Survival data were analyzed using the Wilcoxon log-rank survival analysis and all other statistical analyses were done using one-way ANOVA using a Bonferroni group comparison (Prism 5, GraphPad Software, Inc.).
# [5] = tested on: Gli-luciferace activity in the SUFU-KO-light cells; test: SUFU-KO-Light assay, inhibition of Gli-luciferase activity; assay type: cell-based; details: read-out: IC50 (μM) SUFU-KO-Light; inhibition of Gli-luciferase activity; listed as Isis-11 (−isomer/E2)
# From the text: IC50 SUFO-KO-Light values are for inhibition of Gli-luciferace activity in the SUFU-KO-light cells developed by the James Chen laboratory at Stanford University.
# MB002 cells = test: MTT assay, cell proliferation; assay type: cell-based
# Shh-NPD (Hh subcategory) = test: MTT assay, Medulloblastoma cell line; assay type: cell-based
# Method: (§1) The EC50 values shown below in Table 9 were determined for Isis-11 (E2) by MTT assay in the Medulloblastoma cell lines as indicated.
# UW-426 (Hh subcategory) = test: MTT assay, Medulloblastoma cell line; assay type: cell-based; details: UW426
# Method: as §1
# [6] = tested on: SUFU-KO-Light cells expressing Gli-luciferase; test: Dose-effect curves, dual-Glo luciferase, Compusyn; assay type: cell-based
# SARS-CoV-2 [7] = details: infected Vero cells, 24 hours post-infection, Western blot
# [8] = Mouse PK evaluation, plasma, IV; details: CD-1 mice; for AUC(0-inf): AUCInf; for MRT inf: MRTInf_obs
# [9] = tested on: Raji (Burkitt Lymphoma cell line); test: Raji cell viability / proliferation; details: Homo sapiens, read-out: IC50, Raji cell proliferation
# SARS-CoV-2 [10] = test: microbe, parasite or virus in culture; details: Severe acute respiratory syndrome coronavirus 2, Vero C1008, read-out: EC50, inhibition of cell death
# [11] = CD-1, mouse, in vivo, iv, 3 mg/kg, Mean, 3 mg/kg IV
# [12] = CD-1, mouse, in vivo, iv, 3 mg/kg, Mouse 1, 3 mg/kg IV
# [13] = CD-1, mouse, in vivo, iv, 3 mg/kg, Mouse 2, 3 mg/kg IV
smiles,measurement,setting,value
"CN(C)CCCn1c(N)nc2ccc3c(c21)CC(CN(C)C)O3 (single isomer, unassigned) [Compound E2]",EC50,[1],290 to 320 nM
same,EC50,[2],80 nM
same,activity relative to BCX4430 against RVFV,[3],92 fold
same,EC50,[3]; Rift Valley fever virus,450 nM
same,Alive/total,[4]; 1.0 mg/kg/d,3/3
same,MDD ± SD (average day of death),[4]; 1.0 mg/kg/d,>14.0 ± 0.0 days
same,Mean wt. change (g) ± SD,[4]; 1.0 mg/kg/d,-1.2 ± 0.8 g
same,tolerability,[4]; 3.2 mg/kg eod or q3d,well-tolerated
same,mortality and weight loss,[4]; 3.2 mg/kg i.p.,no mortality or weight loss
same,Alive/total,[4]; 3.2 mg/kg/d,3/3
same,MDD ± SD (average day of death),[4]; 3.2 mg/kg/d,>14.0 ± 0.0 days
same,Mean wt. change (g) ± SD,[4]; 3.2 mg/kg/d,-0.1 ± 0.8 g
same,mortality (animals succumbing to toxicity),"[4]; 10 mg/kg i.p., eod or q3d",2 of 5
same,body weight,"[4]; 10 mg/kg i.p., between 0 and 14 days after initial treatment","some transient weight loss, but an overall weight gain"
same,mortality,"[4]; 32 mg/kg i.p., eod for 4 treatments or q3d for 3 treatments",all succumbed
same,body weight,"[4]; 32 mg/kg i.p., eod or q3d",weight loss
same,"tolerability, second study",[4]; 3.2 or 1.0 mg/kg/d once every third day,well-tolerated with no indication of toxicity
same,tolerability,"[4]; 10 or 32 mg/kg, eod or q3d",toxic
same,"toxicity, initial study","[4]; administered bid, once a day at total daily doses of 32, 10, or 3.2 mg/kg/d",substantial toxicity
same,MTD at 14 days,"[4]; mouse, in vivo, ip",3.2 mg/kg
same,IC50,[5],0.1 µM
same,EC50,MB002 cells; MB002,430 nM
same,IC50,"MB002 cells; MB002, read-out: Dose E2",320 nM
same,EC50,Shh-NPD (Hh subcategory),720 nM
same,EC50,UW-426 (Hh subcategory),105 nM
same,EC50,[6]; read-out: Dose E2,63.5 nM
same,EC50,[6]; read-out: EC50 as single agent,60 nM
same,SARS-CoV-2 nucleocapsid protein levels,SARS-CoV-2 [7],dose-dependent reduction of viral protein
same,"AUC_%Extrap_obs, Mean",[8]; 3 mg/kg IV,22.3%
same,"AUC_%Extrap_obs, Mouse 1",[8]; 3 mg/kg IV,10.4%
same,"AUC_%Extrap_obs, Mouse 2",[8]; 3 mg/kg IV,18.9%
same,"AUC_%Extrap_obs, Mouse 3",[8]; 3 mg/kg IV,37.6%
same,"AUClast, Mean",[8]; 3 mg/kg IV,439 ng·h/mL
same,"AUClast, Mouse 1",[8]; 3 mg/kg IV,472 ng·h/mL
same,"AUClast, Mouse 2",[8]; 3 mg/kg IV,360 ng·h/mL
same,"AUClast, Mouse 3",[8]; 3 mg/kg IV,487 ng·h/mL
same,"AUClast/D, Mean",[8]; 3 mg/kg IV,146
same,"AUClast/D, Mouse 1",[8]; 3 mg/kg IV,157
same,"AUClast/D, Mouse 2",[8]; 3 mg/kg IV,120
same,"AUClast/D, Mouse 3",[8]; 3 mg/kg IV,162
same,"C0, Mean",[8]; 3 mg/kg IV,794 ng/mL
same,"C0, Mouse 1",[8]; 3 mg/kg IV,861 ng/mL
same,"C0, Mouse 2",[8]; 3 mg/kg IV,801 ng/mL
same,"C0, Mouse 3",[8]; 3 mg/kg IV,720 ng/mL
same,"Cl_obs, Mean",[8]; 3 mg/kg IV,91 mL/min/kg
same,"Cl_obs, Mouse 1",[8]; 3 mg/kg IV,95.0 mL/min/kg
same,"Cl_obs, Mouse 2",[8]; 3 mg/kg IV,113 mL/min/kg
same,"Cl_obs, Mouse 3",[8]; 3 mg/kg IV,64.1 mL/min/kg
same,"Vss_obs, Mean",[8]; 3 mg/kg IV,71.1 L/kg
same,"Vss_obs, Mouse 1",[8]; 3 mg/kg IV,43.7 L/kg
same,"Vss_obs, Mouse 2",[8]; 3 mg/kg IV,82.5 L/kg
same,"Vss_obs, Mouse 3",[8]; 3 mg/kg IV,87.0 L/kg
same,"Plasma concentration, Mean","[8]; 3 mg/kg IV, 0.083 h",457 ng/mL
same,"Plasma concentration, Mouse 1","[8]; 3 mg/kg IV, 0.083 h",445 ng/mL
same,"Plasma concentration, Mouse 2","[8]; 3 mg/kg IV, 0.083 h",452 ng/mL
same,"Plasma concentration, Mouse 3","[8]; 3 mg/kg IV, 0.083 h",473 ng/mL
same,"Plasma concentration, Mean","[8]; 3 mg/kg IV, 0.25 h",155 ng/mL
same,"Plasma concentration, Mouse 1","[8]; 3 mg/kg IV, 0.25 h",118 ng/mL
same,"Plasma concentration, Mouse 2","[8]; 3 mg/kg IV, 0.25 h",143 ng/mL
same,"Plasma concentration, Mouse 3","[8]; 3 mg/kg IV, 0.25 h",203 ng/mL
same,"Plasma concentration, Mean","[8]; 3 mg/kg IV, 0.5 h",98 ng/mL
same,"Plasma concentration, Mouse 1","[8]; 3 mg/kg IV, 0.5 h",158 ng/mL
same,"Plasma concentration, Mouse 2","[8]; 3 mg/kg IV, 0.5 h",60.2 ng/mL
same,"Plasma concentration, Mouse 3","[8]; 3 mg/kg IV, 0.5 h",75.5 ng/mL
same,"Plasma concentration, Mean","[8]; 3 mg/kg IV, 1 h",51.1 ng/mL
same,"Plasma concentration, Mouse 1","[8]; 3 mg/kg IV, 1 h",64.0 ng/mL
same,"Plasma concentration, Mouse 2","[8]; 3 mg/kg IV, 1 h",42.7 ng/mL
same,"Plasma concentration, Mouse 3","[8]; 3 mg/kg IV, 1 h",46.5 ng/mL
same,"Plasma concentration, Mean","[8]; 3 mg/kg IV, 2 h",27.2 ng/mL
same,"Plasma concentration, Mouse 1","[8]; 3 mg/kg IV, 2 h",31.9 ng/mL
same,"Plasma concentration, Mouse 2","[8]; 3 mg/kg IV, 2 h",26.8 ng/mL
same,"Plasma concentration, Mouse 3","[8]; 3 mg/kg IV, 2 h",22.8 ng/mL
same,"Plasma concentration, Mean","[8]; 3 mg/kg IV, 4 h",19.0 ng/mL
same,"Plasma concentration, Mouse 1","[8]; 3 mg/kg IV, 4 h",25.4 ng/mL
same,"Plasma concentration, Mouse 2","[8]; 3 mg/kg IV, 4 h",11.7 ng/mL
same,"Plasma concentration, Mouse 3","[8]; 3 mg/kg IV, 4 h",19.8 ng/mL
same,"Plasma concentration, Mean","[8]; 3 mg/kg IV, 8 h",8.9 ng/mL
same,"Plasma concentration, Mouse 1","[8]; 3 mg/kg IV, 8 h",8.79 ng/mL
same,"Plasma concentration, Mouse 2","[8]; 3 mg/kg IV, 8 h",7.76 ng/mL
same,"Plasma concentration, Mouse 3","[8]; 3 mg/kg IV, 8 h",10.2 ng/mL
same,"Plasma concentration, Mean","[8]; 3 mg/kg IV, 24 h",6.9 ng/mL
same,"Plasma concentration, Mouse 1","[8]; 3 mg/kg IV, 24 h",4.57 ng/mL
same,"Plasma concentration, Mouse 2","[8]; 3 mg/kg IV, 24 h",4.10 ng/mL
same,"Plasma concentration, Mouse 3","[8]; 3 mg/kg IV, 24 h",12.1 ng/mL
same,AUC(0-inf),[8]; [11],485 ng·h/mL
same,AUC(0-inf),[8]; [12],526 ng·h/mL
same,AUC(0-inf),[8]; [13],444 ng·h/mL
same,MRT inf,[8]; [11],9.9 h
same,MRT inf,[8]; [12],7.67 h
same,MRT inf,[8]; [13],12.2 h
same,half-life,"[8]; CD-1, mouse, in vivo, iv, 3 mg/kg, T1/2, Mouse 2, 3 mg/kg IV",14.2 h
same,IC50,[9],200 nM
same,EC50,SARS-CoV-2 [10],142 nM
